The target in data set [1] is T1, TBR2 (Homo sapiens, UniProt P37173).
T1 construct: T7 phage fusion (or DNA tag for qPCR if made in HEK-293); purchased DiscoverX; host or cells: E. coli (T7 phage) or HEK-293
Nature of the data set: DiscoverX Kd determination. The data set is classed as binding. As to the method:
DiscoverX Kd determination: For most assays, kinase-tagged T7 phage strains were prepared in an E. coli host derived from the BL21 strain. E. coli were grown to log-phase and infected with T7 phage and incubated with shaking at 32°C until lysis. The lysates were centrifuged and filtered to remove cell debris. The remaining kinases were produced in HEK-293 cells and subsequently tagged with DNA for qPCR detection. […] The liganded beads were blocked with excess biotin and washed with blocking buffer (SeaBlock (Pierce), 1% BSA, 0.05% Tween 20, 1 mM DTT) to remove unbound ligand and to reduce non-specific binding. […] Kds were determined using an 11-point 3-fold compound dilution series with three DMSO control points. […] The compounds were then diluted directly into the assays such that the final concentration of DMSO was 0.9%. All reactions performed in polypropylene 384-well plate. Each was a final volume of 0.02 ml. […] The kinase concentration in the eluates was measured by qPCR. An 11-point 3-fold serial dilution of each test compound was prepared in 100% DMSO at 100x final test concentration and subsequently diluted to 1x in the assay (final DMSO concentration = 1%). Most Kds were determined using a compound top concentration = 30.000 nM. […] Binding constants (Kds) were calculated with a standard dose-response curve using the Hill equation: Response = Background + Signal – Background 1 + (KdHill Slope / DoseHill Slope). The Hill Slope was set to -1. Curves were fitted using a non-linear least square fit with the Levenberg-Marquardt algorithm.

Data set [2] addresses T2, ACVR2A (Homo sapiens, UniProt P27037).
T2 construct: T7 phage fusion (or DNA tag for qPCR if made in HEK-293); purchased DiscoverX; host or cells: E. coli (T7 phage) or HEK-293
Nature of the data set: DiscoverX Kd determination. The data set is classed as binding. As to the method:
(§1) DiscoverX Kd determination: For most assays, kinase-tagged T7 phage strains were prepared in an E. coli host derived from the BL21 strain. E. coli were grown to log-phase and infected with T7 phage and incubated with shaking at 32°C until lysis. The lysates were centrifuged and filtered to remove cell debris. The remaining kinases were produced in HEK-293 cells and subsequently tagged with DNA for qPCR detection. Streptavidin-coated magnetic beads were treated with biotinylated small molecule ligands for 30 minutes at room temperature to generate affinity resins for kinase assays. The liganded beads were blocked with excess biotin and washed with blocking buffer (SeaBlock (Pierce), 1% BSA, 0.05% Tween 20, 1 mM DTT) to remove unbound ligand and to reduce non-specific binding. […] Test compounds were prepared as 111X stocks in 100% DMSO. Kds were determined using an 11-point 3-fold compound dilution series with three DMSO control points. […] The compounds were then diluted directly into the assays such that the final concentration of DMSO was 0.9%. All reactions performed in polypropylene 384-well plate. Each was a final volume of 0.02 ml. […] The kinase concentration in the eluates was measured by qPCR. An 11-point 3-fold serial dilution of each test compound was prepared in 100% DMSO at 100x final test concentration and subsequently diluted to 1x in the assay (final DMSO concentration = 1%). Most Kds were determined using a compound top concentration = 30.000 nM. […] Binding constants (Kds) were calculated with a standard dose-response curve using the Hill equation: Response = Background + Signal – Background 1 + (KdHill Slope / DoseHill Slope). The Hill Slope was set to -1. Curves were fitted using a non-linear least square fit with the Levenberg-Marquardt algorithm.

Data set [3] deals with T3, ACVR2B (Homo sapiens, UniProt Q13705).
T3 construct: T7 phage fusion (or DNA tag for qPCR if made in HEK-293); purchased DiscoverX; host or cells: E. coli (T7 phage) or HEK-293
Nature of the data set: DiscoverX Kd determination. The data set is classed as binding. The protocol: as §1

The nature of data set [4]: Chromlog D. Format: physicochemical. An excerpt: Supplement JBM4-3-na-s005.docx, table 3: Table S3. Solubility and metabolic clearance of selected macrocyclic inhibitors. | column: Chromlog D
A short description of data set [5]: Microsomal incubations, mLM. Format: in vitro ADME. Particulars: mouse, liver microsomes, pH 7.4; microsomes 0.5 mg/ml, 0.5 μM compound; read-out: Metabolic clearance mLM.
Data set [6] can be described thus: Microsomal incubations, rLM. Format: in vitro ADME. The conditions noted are these: rat, liver microsomes, pH 7.4; microsomes 0.5 mg/ml, 0.5 μM compound; read-out: Metabolic clearance rLM.
Data set [7] relates to FOP ECFCs. Nature of the data set: Osteogenic differentiation (mineralization) of FOP ECFCs. The data set is classed as cell-based, human. The conditions noted are these: osteogenic conditions, Alizarin Red; for Effect on activin A-induced osteogenic differentiation: activin A 50 ng/mL; for Effect on BMP-6-induced osteogenic differentiation: BMP-6 50 ng/mL. The protocol: For mineralization assays, 5 × 10^4 ECs were seeded into 48‐well plates and incubated in osteogenic medium containing 10^−8M/L dexamethasone, 0.2mM/L ascorbic acid, and 10mM/L β‐glycerolphosphate in the presence of BMP/ TGF‐β ligands for 28 days. The medium was refreshed every 4 days. Afterwards, cells were washed twice with PBS and fixed with 3.7% formaldehyde for 5 min. Next, cells were washed twice with distilled water; measurement of calcium deposition was performed by Alizarin Red solution (ARS) staining, as previously described.16 Precipitates, originated from three independent ARS assays, were dissolved using 10% cetylpyridinium chloride, and absorbance was measured at 570 nm. Representative pictures were obtained using a Leica DMIL LED microscope (Leica, Wetzlar, Germany) with 10× magnification.
Cells were incubated for 21 days in chondrogenic medium containing BMP‐6 or activin A (50 ng/mL) and LDN‐193189, OD36, or OD52 at 0.5μM, prior to Alcian Blue staining. (B) Quantification of Fig. 6 A by absorbance, after solubilization with guanidine hydrochloride. (C) Chondrogenic gene expression analysis of collagen 2 (Col2), Sox9, Matrix metalloproteinase 13 (Mmp13), and collagen X (Col X) in ATDC5 cells corresponding to (A). (D) Western blot of a representative clone of FOP endothelial colony‐forming cells (ECFCs) incubated with LDN‐193189, OD36, or OD52 (0.5μM) prior to stimulation with BMP‐6 (50 ng/mL) or activin A (50 ng/mL). (E) Expression of the BMP target genes ID1 and ID3 by qPCR in FOP ECFCs stimulated with BMP‐6 (50 ng/mL) or activin A (50 ng/mL) in the presence of the indicated compounds at 0.5μM. (F) Alizarin Red solution staining on a representative clone of FOP ECFCs incubated under osteogenic conditions with BMP‐6 (50 ng/mL) or activin A (50 ng/mL) and the indicated compounds. (G) Quantification of Fig. 6 F by absorbance, after solubilization with cetylpyridinium. (H) Osteogenic genes Collagen 1 alpha 1 (Col1a1), Runx2, and osterix (Osx) expression in a representative clone of FOP ECFCs incubated under osteogenic conditions with BMP‐6 (50 ng/mL) or activin A (50 ng/mL) and LDN‐193189, OD36, or OD52 (0.5 μM). *p < 0.05, **p < 0.01, ***p < 0.001.

Where two headings read alike, the source gives them in different places.

T3 sequence (Q13705 19-512): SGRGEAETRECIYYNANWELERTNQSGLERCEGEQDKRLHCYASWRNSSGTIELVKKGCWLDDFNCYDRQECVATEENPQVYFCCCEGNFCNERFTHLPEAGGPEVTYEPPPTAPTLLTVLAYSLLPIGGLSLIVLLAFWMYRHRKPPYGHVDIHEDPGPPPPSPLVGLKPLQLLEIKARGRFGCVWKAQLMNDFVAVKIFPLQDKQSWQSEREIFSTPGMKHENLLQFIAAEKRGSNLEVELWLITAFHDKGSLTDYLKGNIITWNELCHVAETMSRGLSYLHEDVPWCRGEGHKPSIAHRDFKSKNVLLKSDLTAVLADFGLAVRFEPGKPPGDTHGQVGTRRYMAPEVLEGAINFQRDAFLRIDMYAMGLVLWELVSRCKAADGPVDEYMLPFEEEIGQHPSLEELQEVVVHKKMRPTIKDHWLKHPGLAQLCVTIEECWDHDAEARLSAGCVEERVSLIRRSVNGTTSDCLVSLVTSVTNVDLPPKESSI
T1 sequence (P37173 23-567): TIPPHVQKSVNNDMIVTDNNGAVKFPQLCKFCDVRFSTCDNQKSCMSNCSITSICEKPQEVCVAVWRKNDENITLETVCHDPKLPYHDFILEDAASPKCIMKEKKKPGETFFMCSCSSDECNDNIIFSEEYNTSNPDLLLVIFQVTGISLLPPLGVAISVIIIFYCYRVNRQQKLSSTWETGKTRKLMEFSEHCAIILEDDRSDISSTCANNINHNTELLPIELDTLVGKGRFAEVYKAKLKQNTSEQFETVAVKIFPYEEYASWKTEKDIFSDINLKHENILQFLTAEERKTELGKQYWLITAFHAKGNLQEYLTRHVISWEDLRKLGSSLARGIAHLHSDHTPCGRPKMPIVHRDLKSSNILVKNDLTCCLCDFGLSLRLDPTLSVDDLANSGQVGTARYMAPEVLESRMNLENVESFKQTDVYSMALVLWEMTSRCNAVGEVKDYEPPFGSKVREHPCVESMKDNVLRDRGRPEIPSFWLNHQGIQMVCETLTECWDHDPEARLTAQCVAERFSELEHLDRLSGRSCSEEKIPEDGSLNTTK
T2 sequence (P27037 20-513): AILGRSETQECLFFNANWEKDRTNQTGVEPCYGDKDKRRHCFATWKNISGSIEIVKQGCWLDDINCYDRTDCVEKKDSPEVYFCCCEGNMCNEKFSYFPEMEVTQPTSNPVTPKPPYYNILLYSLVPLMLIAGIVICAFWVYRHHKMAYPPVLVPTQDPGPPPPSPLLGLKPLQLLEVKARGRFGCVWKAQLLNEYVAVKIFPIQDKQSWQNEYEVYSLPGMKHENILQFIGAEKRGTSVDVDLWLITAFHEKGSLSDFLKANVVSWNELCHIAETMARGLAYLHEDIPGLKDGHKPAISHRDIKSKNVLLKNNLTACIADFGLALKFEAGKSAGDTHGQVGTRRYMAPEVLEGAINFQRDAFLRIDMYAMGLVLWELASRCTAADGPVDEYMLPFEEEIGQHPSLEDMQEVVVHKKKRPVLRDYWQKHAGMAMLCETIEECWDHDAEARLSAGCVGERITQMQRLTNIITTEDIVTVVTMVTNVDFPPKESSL

In the case of `c1ccc2c(-c3cnn4cc(-c5ccc(N6CCNCC6)cc5)cnc34)ccnc2c1` [LDN-193189, reference compound], the Kd in data set [1] amounted to 26 nM; in data set [2], 12 nM; in data set [3] it was 11 nM. The same molecule came in with a chromatographic logD in data set [4] of 2.7. Also, the microsomal CLint at 0.5 μM was determined as 95 µL/min/mg in data set [5] and 185 µL/min/mg in data set [6]. Moreover, in data set [7], the “Effect on activin A-induced osteogenic differentiation” value is “inhibited”.
Regarding `Clc1cc2cc(c1)-c1cnn3ccc(nc13)NCCOCCO2` [OD36], the Kd was determined as 680 nM in data set [1] (read-out: Kd in nM TBR2), 3000 nM in data set [2] and 90 nM in data set [3]. Also, in data set [4], the chromatographic logD was determined as 5.4. In addition, the figures for the microsomal CLint at 0.5 μM in data set [5] and in data set [6] were 207 µL/min/mg and 74 µL/min/mg, respectively. The “Effect on BMP-6-induced osteogenic differentiation” value in data set [7] is on record as “modest effect”. For the same molecule, the “Effect on activin A-induced osteogenic differentiation” value in data set [7] is “efficiently blocked”.
Regarding `Cc1cc2cc(c1)-c1cnn3ccc(nc13)NCCNC(=O)CCN(C)C2` [OD52], the equilibrium dissociation constant (Kd) in data set [1] (read-out: Kd in nM TBR2) stood at 2500 nM; in data set [2] it was 590 nM; in data set [3], 220 nM. This molecule also showed a chromatographic logD in data set [4] of 3.9. In addition, the values for the microsomal CLint at 0.5 μM in data set [5] and in data set [6] were 84 µL/min/mg and 32 µL/min/mg, respectively. In addition, the “Effect on BMP-6-induced osteogenic differentiation” value in data set [7] is recorded as “modest effect”. The “Effect on activin A-induced osteogenic differentiation” value in data set [7] is recorded as “efficiently blocked”.

(Values after PMC6874179, “Development of Macrocycle Kinase Inhibitors for ALK2 Using Fibrodysplasia Ossificans Progressiva‐Derived Endothelial Cells” (JBMR Plus, 2019).)
